Test results published in ChEMBL document CHEMBL1126185, “2-(N'-alkylidenehydrazino)adenosines: potent and selective coronary vasodilators” (J Med Chem, 1992).

These compounds were tested against T1, Adenosine receptor A1 (Cavia porcellus, UniProt P47745) (assay: In vitro prolonging of the stimulus-QRS interval in guinea pig heart.).
T1 sequence (P47745 whole entry): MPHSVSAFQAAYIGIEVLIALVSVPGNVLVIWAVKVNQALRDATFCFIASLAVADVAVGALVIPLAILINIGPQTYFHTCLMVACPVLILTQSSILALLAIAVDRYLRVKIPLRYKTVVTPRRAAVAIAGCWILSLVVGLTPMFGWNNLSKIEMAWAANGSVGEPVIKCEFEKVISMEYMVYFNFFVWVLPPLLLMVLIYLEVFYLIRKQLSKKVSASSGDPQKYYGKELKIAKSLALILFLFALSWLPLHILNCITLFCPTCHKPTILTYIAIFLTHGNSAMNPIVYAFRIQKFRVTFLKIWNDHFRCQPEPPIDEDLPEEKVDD

Row | Structure (SMILES) | EC50 [µM]
1 | NNc1nc(N)c2ncn(C3O[C@H](CO)[C@@H](O)[C@H]3O)c2n1 (stereo partly specified) | 20
2 | Nc1nc(N/N=C/CC2CCCCC2)nc2c1ncn2C1O[C@H](CO)[C@@H](O)[C@H]1O (stereo partly specified) | 9.77
3 | Nc1nc(N/N=C/C2CCCCC2)nc2c1ncn2[C@@H]1O[C@H](CO)[C@@H](O)[C@H]1O [BINODENOSON] | 3.55
4 | Nc1nc(NCCC2=CCCCC2)nc2c1ncn2C1O[C@H](CO)[C@@H](O)[C@H]1O (stereo partly specified) | 22.9
5 | CCC(CC)=NNc1nc(N)c2ncn(C3O[C@H](CO)[C@@H](O)[C@H]3O)c2n1 (stereo partly specified) | 8.91
6 | CC1(C)C2CC=C(/C=N/Nc3nc(N)c4ncn(C5O[C@H](CO)[C@@H](O)[C@H]5O)c4n3)C1C2 (stereo partly specified) | 25.7
7 | CC(C)/C=N/Nc1nc(N)c2ncn(C3O[C@H](CO)[C@@H](O)[C@H]3O)c2n1 (stereo partly specified) | 12.6
8 | CCCC/C=N/Nc1nc(N)c2ncn(C3O[C@H](CO)[C@@H](O)[C@H]3O)c2n1 (stereo partly specified) | 25.1
9 | Nc1nc(N/N=C/C2=CCCCC2)nc2c1ncn2C1O[C@H](CO)[C@@H](O)[C@H]1O (stereo partly specified) | 17.4
10 | Nc1nc(NCCC2CCCCC2)nc2c1ncn2C1O[C@H](CO)[C@@H](O)[C@H]1O (stereo partly specified) | 12.3
11 | C/C=N/Nc1nc(N)c2ncn(C3O[C@H](CO)[C@@H](O)[C@H]3O)c2n1 (stereo partly specified) | 3.63
12 | Nc1nc(N/N=C/C2=CC3CCC2C3)nc2c1ncn2C1O[C@H](CO)[C@@H](O)[C@H]1O (stereo partly specified) | 20.4
13 | CC(C)C/C=N/Nc1nc(N)c2ncn([C@@H]3O[C@H](CO)[C@@H](O)[C@H]3O)c2n1 | 20.9
14 | CC/C=N/Nc1nc(N)c2ncn(C3O[C@H](CO)[C@@H](O)[C@H]3O)c2n1 (stereo partly specified) | 13.5
15 | CCC(/C=N/Nc1nc(N)c2ncn(C3O[C@H](CO)[C@@H](O)[C@H]3O)c2n1)CC (stereo partly specified) | 11
16 | CCC/C=N/Nc1nc(N)c2ncn(C3O[C@H](CO)[C@@H](O)[C@H]3O)c2n1 (stereo partly specified) | 11.5
17 | CC(C)=NNc1nc(N)c2ncn(C3O[C@H](CO)[C@@H](O)[C@H]3O)c2n1 (stereo partly specified) | 12
18 | Nc1nc(N/N=C/C2CC=CCC2)nc2c1ncn2C1O[C@H](CO)[C@@H](O)[C@H]1O (stereo partly specified) | 7.24
19 | CC(C)(C)/C=N/Nc1nc(N)c2ncn(C3O[C@H](CO)[C@@H](O)[C@H]3O)c2n1 (stereo partly specified) | 25.1
20 | Nc1nc(N/N=C/CCC2CCCCC2)nc2c1ncn2C1O[C@H](CO)[C@@H](O)[C@H]1O (stereo partly specified) | 66.1
21 | CCC/C(C)=N/Nc1nc(N)c2ncn(C3O[C@H](CO)[C@@H](O)[C@H]3O)c2n1 (stereo partly specified) | 16.6

Each compound was assayed against Adenosine A2 receptor (Cavia porcellus) (assay: In vitro effect on coronary vasodilation in guinea pig heart.).

Row | Structure (SMILES) | -Log EC50
22 | Nc1nc(N/N=C/CC2CCCCC2)nc2c1ncn2C1O[C@H](CO)[C@@H](O)[C@H]1O (stereo partly specified) | 9.16
23 | Nc1nc(NCCC2=CCCCC2)nc2c1ncn2C1O[C@H](CO)[C@@H](O)[C@H]1O (stereo partly specified) | 8.65
24 | CCC(CC)=NNc1nc(N)c2ncn(C3O[C@H](CO)[C@@H](O)[C@H]3O)c2n1 (stereo partly specified) | 6.75
25 | CC(C)/C=N/Nc1nc(N)c2ncn(C3O[C@H](CO)[C@@H](O)[C@H]3O)c2n1 (stereo partly specified) | 8.13
26 | CCCC/C=N/Nc1nc(N)c2ncn(C3O[C@H](CO)[C@@H](O)[C@H]3O)c2n1 (stereo partly specified) | 8.99
27 | Nc1nc(NCCC2CCCCC2)nc2c1ncn2C1O[C@H](CO)[C@@H](O)[C@H]1O (stereo partly specified) | 8.72
28 | C/C=N/Nc1nc(N)c2ncn(C3O[C@H](CO)[C@@H](O)[C@H]3O)c2n1 (stereo partly specified) | 7.12
29 | Nc1nc(N/N=C/C2=CC3CCC2C3)nc2c1ncn2C1O[C@H](CO)[C@@H](O)[C@H]1O (stereo partly specified) | 8.48
30 | CC(C)C/C=N/Nc1nc(N)c2ncn([C@@H]3O[C@H](CO)[C@@H](O)[C@H]3O)c2n1 | 9.33
31 | CC/C=N/Nc1nc(N)c2ncn(C3O[C@H](CO)[C@@H](O)[C@H]3O)c2n1 (stereo partly specified) | 7.88
32 | CCC(/C=N/Nc1nc(N)c2ncn(C3O[C@H](CO)[C@@H](O)[C@H]3O)c2n1)CC (stereo partly specified) | 8.24
33 | CCC/C=N/Nc1nc(N)c2ncn(C3O[C@H](CO)[C@@H](O)[C@H]3O)c2n1 (stereo partly specified) | 8.54
34 | CC(C)=NNc1nc(N)c2ncn(C3O[C@H](CO)[C@@H](O)[C@H]3O)c2n1 (stereo partly specified) | 7.3
35 | CC(C)(C)/C=N/Nc1nc(N)c2ncn(C3O[C@H](CO)[C@@H](O)[C@H]3O)c2n1 (stereo partly specified) | 7.46
36 | CCC/C(C)=N/Nc1nc(N)c2ncn(C3O[C@H](CO)[C@@H](O)[C@H]3O)c2n1 (stereo partly specified) | 8.7
